According to patent publication US4783462A, “3(2H)pyridazinone, and anti-allergic agent containing it” (Nissan Chemical Industries Ltd., priority 1985, dated 1988):

Columns and labels:
LTC4 [1] = assay: LTC4 antagonism in isolated guinea-pig trachea, Test method (i) (Table 2); type: cell-based; conditions: Cavia porcellus, 5 min, read-out: Antagonism (%)
Description: (§1) (i) LTC4 and LTD4 antagonisms in guinea-pig trachea
(§2) Antagonisms for LTC4 and LTD4 were determined in isolated guinea-pig trachea prepared as spiral strip. Tracheal preparations were suspended under 1 g tension in 10 ml organ baths and they were incubated for 1 hr prior to use. Contractile responses to LTC4 (2×10^-8 g/ml) and LTD4 (2×10^-8 g/ml) were obtained after the maximal response to histamine (10^-4 M). Test compounds dissolved in 100% dimethyl sulfoxide were added to the organ baths (final concentration of 10^-5 g/ml or 10^-6 g/ml) 5 min prior to LTC4 and LTD4 addition, and then contractile responses to LTC4 and LTD4 were compared with those of control which was obtained from a paired trachea in the absence of test compounds. LTC4 - and LTD4 -induced contractions were expressed as a percentage of the maximal response to histamine. The antagonism was determined as follows:
(§3) Antagonism (%)=(1.0-% contraction in test/% contraction in […]

[2] = tested on: anaphylactic bronchoconstriction in passively sensitized guinea-pig; assay: Effect on anaphylactic bronchoconstriction in passively sensitized guinea-pig; type: in vivo; conditions: 2 mg/kg i.v.
Description: (iii) Effect on anaphylactic bronchoconstriction in passively sensitized guinea-pig
Male guinea-pigs (350-450 g) were passively sensitized with intravenous (i.v.) injection of 0.125 ml rabbit anti-EA (egg albumin) serum (Cappel Laboratories) 1 day preceding the experiment. […] Sensitized guinea-pigs were anaesthetized with intraperitoneal injection of urethane (1.5 g/kg). The right jugular vein was cannulated for the administration of the all agents and trachea was cannulated to record total pulmonary resistance. Guinea-pigs were artificially ventilated by a small animal respirator (Shinano, Model SN-480-7) set at a stroke volume of 5 ml and a rate of 50 breaths per min. […] The increase in air overflow volume was expressed as a percentage of the maximum bronchoconstriction obtained by clamping off the trachea. Following surgical preparation, the animals were pretreated with indomethacin (1.0 mg/kg, 10 min), pyrilamine (2 mg/kg, 6 min) and propranolol (0.1 mg/kg, 5 min) prior to the EA challenge (0.1 or 10 mg/kg). All test compounds, 2 mg/kg in 3% Tween 80 or 3% PEG-400, were administered 1 min before the EA challenge. Inhibition (%) of bronchoconstriction was determined as follows: Inhibition (%)=(1.0%-maximum bronchoconstriction in test/% maximum bronchoconstriction in control)×100. The maximum bronchoconstriction was obtained within 20 min after the EA challenge.
In the Table, the dose of EA was 10 mg/kg, and each compound was dissolved or suspended in 3% Tween 80.
The dose of EA was 0.1 mg/kg.

LTC4 [3] = assay: Antagonism in isolated guinea-pig trachea, Test method (i) (Table 3, given as LTC4 antagonism); type: cell-based; conditions: Cavia porcellus, 5 min, test compound 10^-5 g/ml, given as LTC4 antagonisms
Outline: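 Spiral strips of guinea-pig trachea under 1 g tension, contracted by LTC4 (2×10^-8 g/ml) after maximal histamine (10^-4 M) response. Compounds added at 10^-5 or 10^-6 g/ml final 5 min beforehand; contraction expressed as % histamine maximum and antagonism % calculated against paired untreated trachea.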

ddY strain male mice [4] = assay: Acute toxicity test, Test method-(2), intraperitoneal; type: in vivo; conditions: 7 days
Description: The lethal ratio was determined in ddY strain male mice (4 weeks old) at 7 days after the intraperitoneal injection of test compounds.

LTD4 [5] = assay: LTD4 antagonism in isolated guinea-pig trachea, Test method (i) (Table 4, values with asterisk); type: cell-based; conditions: Cavia porcellus, 5 min, test compound 10^-6 g/ml, 5 min prior
Description: as §1, §2, §3

ddY strain male mice [6] = assay: Acute toxicity test, Test method-(1), oral; type: in vivo; conditions: 7 days
Description: The lethal ratio was determined in ddY strain male mice (4 weeks old) at 7 days after the oral administation of test compounds.

LTD4 [7] = assay: LTD4 antagonism in isolated guinea-pig trachea with indomethacin, Test method (ii) (Table 4); type: cell-based; conditions: Cavia porcellus, 0.5 h, LTD4 2×10^-8 g/ml, test compound 10^-6 g/ml, 30 min prior, 5 μmol indomethacin
Description: (ii) LTD4 antagonism in guinea-pig trachea
Antagonism for LTD4 was determined in isolated guinea-pig trachea prepared as spiral strip. Tracheal preparations were suspended under 1 g tension in 10 ml organ baths containing 5 μmol of indomethacin and they were incuated for 1 hr prior to use. Contractile responses to LTD4 (2×10^-8 g/ml) were obtained after the maximal response to histamine (10^-4 M). Test compounds dissolved in 100% dimethyl sulfoxide were added to the organ baths (final concentration of 10^-6 g/ml) 30 min prior to LTD4 addition, and then contractile responses to LTD4 were compared with those of control which was obtained from a paired trachea in the absence of test compounds. LTD4 -induced contractions were expressed as a percentage of the maximal response to histamine. The antagonism was determined as follows:
as §3

[8] = LTC4 2×10^-8 g/ml, test compound 10^-5 g/ml
[9] = Table 5-(1), EA 10 mg/kg, 3% Tween 80
[10] = Table 5-(2), EA 0.1 mg/kg, PEG-400
[11] = Table 5-(2), EA 0.1 mg/kg, Tween 80

SMILES | inhibition at 10 µg/mL (LTC4 [3]) | inhibition at 1 µg/mL (LTD4 [5]) | also measured
CCCc1cc(C(=O)OC)ccc1OCCCNc1cn[nH]c(=O)c1Cl [Compound No. 4, 4-Chloro-5-[3-(2-n-propyl-4-methoxycarbonylphenoxy)propylamino]-3(2H)pyridazinone] | 85% | – | inhibition at 10 µg/mL (LTC4 [1]; [8]): 99%; Inhibition (%) [2, 9]: 27%; Lethal ratio (Death number/Experimental number) (ddY strain male mice [4]; 200 mg/kg intraperitoneal): 0/2; Lethal ratio (Death number/Experimental number) (ddY strain male mice [4]; 400 mg/kg intraperitoneal): 0/1
CCCc1cc(C(=O)OC)ccc1OCCCNc1cnn(CC)c(=O)c1Cl [Compound No. 6, 4-Chloro-5-[3-(2-n-propyl-4-methoxycarbonylphenoxy)propylamino]-2-ethyl-3(2H)pyridazinone] | 96% | 78% | Inhibition (%) [2, 10]: 44%
CCCc1cc(C(=O)O)ccc1OCCCNc1cnn(CC)c(=O)c1Cl [Compound No. 7, 4-Chloro-5-[3-(2-n-propyl-4-carboxyphenoxy)propylamino]-2-ethyl-3(2H)pyridazinone] | 82% | – | inhibition at 10 µg/mL (LTC4 [1]; [8]): 95%; Inhibition (%) [2, 9]: 31%; Lethal ratio (Death number/Experimental number) (ddY strain male mice [4]; 200 mg/kg intraperitoneal): 0/2; Lethal ratio (Death number/Experimental number) (ddY strain male mice [4]; 400 mg/kg intraperitoneal): 0/1
CCn1ncc(NCCc2ccc(OC)cc2)c(Cl)c1=O [Compound No. 20, 4-Chloro-5-[2-(4-methoxyphenyl)ethylamino]-2-ethyl-3(2H)pyridazinone] | 80% | – | inhibition at 10 µg/mL (LTC4 [1]; [8]): 73%
CCCc1cc(OC)ccc1OCCCNc1cnn(CC)c(=O)c1Cl [Compound No. 82, 4-chloro-5-[3-(2-n-propyl-4-methoxyphenoxy)propylamino]-2-ethyl-3(2H)pyridazinone] | 100% | – | Lethal ratio (ddY strain male mice [6]; 400 mg/kg oral): 0/2; Lethal ratio (ddY strain male mice [6]; 800 mg/kg oral): 0/2
CCCCc1cc(C(=O)O)ccc1OCCCNc1cnn(C(C)C)c(=O)c1Cl [Compound No. 112, 4-chloro-5-[3-(2-n-butyl-4-carboxyphenoxy)propylamino]-2-i-propyl-3(2H) pyridazinone] | 100% | 62% | –
CCCCc1cc(C(N)=O)ccc1OCCCNc1cnn(C(C)C)c(=O)c1Cl [Compound No. 114, 4-Chloro-5-[3-(2-n-butyl-4-carbamoylphenoxy)propylamino]-2-i-propyl-3-(2H)pyridazinone] | 89% | 66% | –
C=CCc1cc(C#N)ccc1OCCCNc1cnn(CC)c(=O)c1Br [Compound No. 117] | 98% | 67% | –
CCCc1cc(C#N)ccc1OCC(CNc1cnn(C(C)C)c(=O)c1Cl)OC (stereo not shown) [Compound No. 158, 4-Chloro-5-[3-(2-n-propyl-4-cyanophenoxy)-2-methoxypropylamino]-2-i-propyl-3(2H)pyridazinone] | 93% | 53% | –
CCCc1c(OCC(O)COc2ccc3c(=O)cc(C(=O)O)oc3c2CCC)ccc(C(C)=O)c1O (stereo not shown) [FPL-55712, reference compound] | 97% | 76% | inhibition at 10 µg/mL (LTC4 [1]): 100%; Inhibition (%) [2, 9]: 27%; Inhibition (%) [2, 11]: 60%; inhibition at 1 µg/mL (LTD4 [7]): 94%
CCCc1c(OCCCOc2cnn(C(C)(C)C)c(=O)c2Cl)ccc2c(=O)cc(C(=O)OCC)oc12 [compound 23] | 31% | – | inhibition at 10 µg/mL (LTC4 [1]; [8]): 27%
CCCc1c(OCCCOc2cnn(CC)c(=O)c2Cl)ccc2c(=O)cc(C(=O)OCC)oc12 [compound 25] | 24% | – | inhibition at 10 µg/mL (LTC4 [1]; [8]): 53%; Inhibition (%) [2, 9]: 18%
C=CCc1cc(C#N)ccc1OCCCNc1cnn(C(C)C)c(=O)c1Cl [compound 69] | 99% | 66% | Inhibition (%) [2, 11]: 51%
Cc1ccccc1OCCCNc1cnn(C(C)C)c(=O)c1Cl [compound 72] | 85% | – | Lethal ratio (ddY strain male mice [6]; 400 mg/kg oral): 0/2
C=CCc1cc(C#N)ccc1OCCCNc1cnn(CC)c(=O)c1Cl [compound 80] | 98% | 59% | Lethal ratio (ddY strain male mice [6]; 400 mg/kg oral): 0/2; Lethal ratio (ddY strain male mice [6]; 800 mg/kg oral): 0/2
CCc1cc(C=O)ccc1OCCCNc1cnn(C(C)C)c(=O)c1Cl [compound 94] | 98% | – | Lethal ratio (ddY strain male mice [6]; 400 mg/kg oral): 0/2; Lethal ratio (ddY strain male mice [6]; 800 mg/kg oral): 0/2
CCc1cc(C(=O)OC)ccc1OCCCNc1cnn(C(C)C)c(=O)c1Cl [compound 101] | 92% | – | Inhibition (%) [2, 10]: 51%; Lethal ratio (ddY strain male mice [6]; 400 mg/kg oral): 0/2; Lethal ratio (ddY strain male mice [6]; 800 mg/kg oral): 0/2
CCCc1cc(C#N)ccc1OCCCNc1cnn(CC)c(=O)c1Br [compound 116] | 90% | 82% | –
CCCc1cc(C(=O)OC)ccc1OCCCNc1cnn(CC)c(=O)c1Br [compound 118] | 91% | 69% | –
CCCc1cc(C#N)ccc1OCCCNc1cnn(C(C)C)c(=O)c1Br [compound 120] | – | 82% | –
CCCc1cc(C(N)=O)ccc1OCCCNc1cnn(CC)c(=O)c1Br [compound 121] | – | 43% | –
C=CCc1cc(C#N)ccc1OCCCNc1cnn(C(C)C)c(=O)c1Br [compound 123] | – | 65% | –
CCCc1cc(C#N)ccc1OCCCNc1cnn(C(C)(C)C)c(=O)c1CCC [compound 128] | – | 17% | –
CCCc1cc(C(=O)OC)ccc1OCCCNc1cn[nH]c(=O)c1CCC [compound 131] | – | 33% | –
CCCc1cc(C(=O)O)ccc1OCCCNc1cn[nH]c(=O)c1CCC [compound 132] | – | 26% | –
CCCc1cc(C(=O)OC)ccc1OCCCNc1cnn(CC)c(=O)c1CCC [compound 133] | – | 27% | –
